Data as given in patent US9266892B2, “Fused pyrazoles as FGFR inhibitors” (Incyte Corporation, priority 2012, dated 2016).

Columns and labels:
Type in all cases: biochemical
FGFR1 = target: T1, FGFR1 (Homo sapiens, UniProt P11362); assay: FGFR Enzymatic Assay (FRET peptide phosphorylation), FGFR1; conditions: FGFR1 0.02 nM, ATP 210 μM
T1 construct: purchased Millipore or Invitrogen
Outline: (§1)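 Human FGFR1 (0.02 nM) and FGFR2 (0.01 nM) were pre-incubated with compound for 5-10 min in HEPES buffer pH 7.5, then reacted at 25 °C for 1 hr with 500 nM biotinylated peptide and ATP (FGFR1 210 μM; FGFR2 100 μM). Phosphopeptide was detected by Eu-PY20/APC-streptavidin TR-FRET after EDTA quench. IC50 came from variable-slope sigmoidal fits.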

FGFR3 = target: T2, FGFR3 (Homo sapiens, UniProt P22607); assay: FGFR Enzymatic Assay (FRET peptide phosphorylation), FGFR3; conditions: ATP 140 μM, 25° C. for 1 hr
T2 construct: purchased Millipore
T2 sequence (P22607 23-806): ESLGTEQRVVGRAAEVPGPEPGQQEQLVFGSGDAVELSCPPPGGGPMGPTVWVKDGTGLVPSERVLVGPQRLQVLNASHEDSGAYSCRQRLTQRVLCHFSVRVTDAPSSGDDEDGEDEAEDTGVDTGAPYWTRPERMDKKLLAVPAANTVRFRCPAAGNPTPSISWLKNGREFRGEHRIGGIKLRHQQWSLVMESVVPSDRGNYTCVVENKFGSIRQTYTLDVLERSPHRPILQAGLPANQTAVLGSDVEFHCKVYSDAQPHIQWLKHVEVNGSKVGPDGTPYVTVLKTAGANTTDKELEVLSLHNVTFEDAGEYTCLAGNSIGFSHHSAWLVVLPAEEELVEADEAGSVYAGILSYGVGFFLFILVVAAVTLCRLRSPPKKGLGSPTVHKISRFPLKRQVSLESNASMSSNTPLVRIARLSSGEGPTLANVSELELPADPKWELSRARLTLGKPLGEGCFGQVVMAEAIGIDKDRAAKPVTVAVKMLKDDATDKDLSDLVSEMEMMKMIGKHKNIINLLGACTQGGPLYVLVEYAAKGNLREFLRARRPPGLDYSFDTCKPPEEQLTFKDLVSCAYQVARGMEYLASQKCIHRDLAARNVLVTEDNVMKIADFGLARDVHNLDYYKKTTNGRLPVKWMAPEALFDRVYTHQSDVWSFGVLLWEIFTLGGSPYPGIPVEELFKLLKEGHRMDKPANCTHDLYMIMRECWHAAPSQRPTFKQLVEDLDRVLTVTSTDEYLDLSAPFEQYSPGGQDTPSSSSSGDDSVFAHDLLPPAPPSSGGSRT
Outline: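 FGFR3 in 50 mM HEPES pH 7.5, 10 mM […]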

FGFR2 = target: T3, FGFR2 (Homo sapiens, UniProt P21802); assay: FGFR Enzymatic Assay (FRET peptide phosphorylation), FGFR2; conditions: FGFR2 0.01 nM, ATP 100 μM
T3 construct: purchased Millipore or Invitrogen
T3 sequence (P21802 22-821): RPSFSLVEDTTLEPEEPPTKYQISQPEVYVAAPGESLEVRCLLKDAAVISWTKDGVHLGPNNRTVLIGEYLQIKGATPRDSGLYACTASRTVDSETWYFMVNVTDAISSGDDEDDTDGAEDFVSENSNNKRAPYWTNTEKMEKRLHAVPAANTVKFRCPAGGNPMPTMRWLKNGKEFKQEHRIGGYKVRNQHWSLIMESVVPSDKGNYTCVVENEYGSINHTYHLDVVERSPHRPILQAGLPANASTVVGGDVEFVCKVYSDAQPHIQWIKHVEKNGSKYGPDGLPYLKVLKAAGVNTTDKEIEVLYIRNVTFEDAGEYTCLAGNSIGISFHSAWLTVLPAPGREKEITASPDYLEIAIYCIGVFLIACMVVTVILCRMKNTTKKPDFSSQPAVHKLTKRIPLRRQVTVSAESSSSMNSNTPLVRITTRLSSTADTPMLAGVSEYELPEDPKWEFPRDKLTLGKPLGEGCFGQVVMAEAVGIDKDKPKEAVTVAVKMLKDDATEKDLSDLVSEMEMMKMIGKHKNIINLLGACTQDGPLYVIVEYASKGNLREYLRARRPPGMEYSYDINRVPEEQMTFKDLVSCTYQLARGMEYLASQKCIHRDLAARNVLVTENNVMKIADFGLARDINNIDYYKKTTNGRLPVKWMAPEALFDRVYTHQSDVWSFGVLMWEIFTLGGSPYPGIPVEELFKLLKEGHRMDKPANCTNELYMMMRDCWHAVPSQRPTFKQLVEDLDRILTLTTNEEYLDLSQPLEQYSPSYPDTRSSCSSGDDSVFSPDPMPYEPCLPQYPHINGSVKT
Outline: as §1

T1 sequence (P11362 22-822): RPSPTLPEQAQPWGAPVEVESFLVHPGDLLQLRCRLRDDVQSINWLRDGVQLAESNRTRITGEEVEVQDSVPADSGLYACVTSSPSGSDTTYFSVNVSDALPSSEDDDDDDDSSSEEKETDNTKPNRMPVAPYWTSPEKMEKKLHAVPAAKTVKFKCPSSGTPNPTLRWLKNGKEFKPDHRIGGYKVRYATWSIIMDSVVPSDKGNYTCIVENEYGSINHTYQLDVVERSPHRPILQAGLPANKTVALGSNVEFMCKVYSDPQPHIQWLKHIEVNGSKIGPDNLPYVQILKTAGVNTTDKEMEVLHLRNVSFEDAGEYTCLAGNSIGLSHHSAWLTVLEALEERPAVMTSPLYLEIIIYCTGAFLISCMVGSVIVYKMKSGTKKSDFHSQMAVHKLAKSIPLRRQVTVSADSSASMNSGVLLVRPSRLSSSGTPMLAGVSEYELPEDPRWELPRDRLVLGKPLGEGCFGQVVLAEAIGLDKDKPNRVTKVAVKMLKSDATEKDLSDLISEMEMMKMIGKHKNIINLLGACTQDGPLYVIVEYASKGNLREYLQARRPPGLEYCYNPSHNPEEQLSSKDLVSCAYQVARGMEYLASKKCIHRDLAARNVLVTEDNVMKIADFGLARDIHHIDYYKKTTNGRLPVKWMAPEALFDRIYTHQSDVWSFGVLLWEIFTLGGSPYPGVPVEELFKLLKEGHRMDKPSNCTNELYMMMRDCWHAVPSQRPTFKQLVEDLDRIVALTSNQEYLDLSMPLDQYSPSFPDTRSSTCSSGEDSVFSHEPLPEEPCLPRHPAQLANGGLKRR

COc1cc(OC)c(Cl)c(-c2ncc3c(-c4ccc(N5CCN(C)CC5)cc4)n[nH]c3n2)c1Cl [Example 75, 6-(2,6-Dichloro-3,5-dimethoxyphenyl)-3-[4-(4-methylpiperazin-1-yl)phenyl]-1H-pyrazolo[3,4-d]pyrimidine]
IC50 (FGFR1): < 100 nM
IC50 (FGFR3): < 100 nM
IC50 (FGFR2): < 100 nM

COc1cc(OC)c(F)c(-c2cc3[nH]nc(-c4ccc5c(c4)CN(C4CCN(C)CC4)C5=O)c3cn2)c1F [Example 66, 5-[6-(2,6-Difluoro-3,5-dimethoxyphenyl)-1H-pyrazolo[4,3-c]pyridin-3-yl]-2-(1-methylpiperidin-4-yl)isoindolin-1-one]
IC50 (FGFR1): < 100 nM
IC50 (FGFR3): < 100 nM
IC50 (FGFR2): < 100 nM

COc1cc(OC)c(F)c(-c2ncc3c(-c4ccc5c(c4)CN(C(C)CO)C5=O)n[nH]c3n2)c1F (stereo not drawn) [Example 81, 5-[6-(2,6-Difluoro-3,5-dimethoxyphenyl)-1H-pyrazolo[3,4-d]pyrimidin-3-yl]-2-(2-hydroxy-1-methylethyl)isoindolin-1-one]
IC50 (FGFR1): < 100 nM
IC50 (FGFR3): < 100 nM
IC50 (FGFR2): < 100 nM

CCN1CCc2cc(-c3n[nH]c4nc(-c5c(Cl)c(OC)cc(OC)c5Cl)ncc34)ccc2C1=O [Example 10, 6-[6-(2,6-Dichloro-3,5-dimethoxyphenyl)-1H-pyrazolo[3,4-d]pyrimidin-3-yl]-2-ethyl-3,4-dihydroisoquinolin-1(2H)-one]
IC50 (FGFR1): < 100 nM
IC50 (FGFR3): < 100 nM
IC50 (FGFR2): < 100 nM

COc1cc(OC)c(F)c(-c2cc3[nH]nc(-c4ccc5c(c4)CN(C(C)C)C5=O)c3cn2)c1F [Example 53, 5-[6-(2,6-Difluoro-3,5-dimethoxyphenyl)-1H-pyrazolo[4,3-c]pyridin-3-yl]-2-isopropylisoindolin-1-one]
IC50 (FGFR1): < 100 nM
IC50 (FGFR3): < 100 nM
IC50 (FGFR2): < 100 nM

COc1cc(OC)c(Cl)c(-c2cc3[nH]nc(-c4cnn(CC(=O)N5CC(O)C5)c4)c3cn2)c1Cl [Example 39, 1-({4-[6-(2,6-Dichloro-3,5-dimethoxyphenyl)-1H-pyrazolo[4,3-c]pyridin-3-yl]-1H-pyrazol-1-yl}acetyl)azetidin-3-ol]
IC50 (FGFR1): < 100 nM
IC50 (FGFR3): < 100 nM
IC50 (FGFR2): < 100 nM

COc1cc(OC)c(F)c(-c2ncc3c(-c4ccc5nccn5c4)n[nH]c3n2)c1F [Example 93, 6-(2,6-Difluoro-3,5-dimethoxyphenyl)-3-imidazo[1,2-a]pyridin-6-yl-1H-pyrazolo[3,4-d]pyrimidine]
IC50 (FGFR1): < 100 nM
IC50 (FGFR3): < 100 nM
IC50 (FGFR2): < 100 nM

COc1cc(OC)c(Cl)c(-c2ccc3c(-c4ccc5c(c4)CN(C4CC4)C5=O)n[nH]c3n2)c1F [Example 89, 5-[6-(2-Chloro-6-fluoro-3,5-dimethoxyphenyl)-1H-pyrazolo[3,4-b]pyridin-3-yl]-2-cyclopropylisoindolin-1-one]
IC50 (FGFR1): < 100 nM
IC50 (FGFR3): < 100 nM
IC50 (FGFR2): < 100 nM

COc1cc(OC)c(Cl)c(-c2ncc3c(-c4ccc5c(c4)CCNC5=O)n[nH]c3n2)c1Cl [Example 8, 6-[6-(2,6-Dichloro-3,5-dimethoxyphenyl)-1H-pyrazolo[3,4-d]pyrimidin-3-yl]-3,4-dihydroisoquinolin-1(2H)-one]
IC50 (FGFR1): < 100 nM
IC50 (FGFR3): < 100 nM
IC50 (FGFR2): < 100 nM

COc1cc(OC)c(F)c(-c2ncc3c(-c4ccc5c(c4)CN(S(C)(=O)=O)CC5)n[nH]c3n2)c1F [Example 85, 7-[6-(2,6-Difluoro-3,5-dimethoxyphenyl)-1H-pyrazolo[3,4-d]pyrimidin-3-yl]-2-(methylsulfonyl)-1,2,3,4-tetrahydroisoquinoline]
IC50 (FGFR1): < 100 nM
IC50 (FGFR3): < 100 nM
IC50 (FGFR2): < 100 nM

COc1cc(OC)c(F)c(-c2ncc3c(-c4ccc5c(c4)CC(C(=O)N(C)C)O5)n[nH]c3n2)c1F (single isomer, unassigned) [Example 4, 5-[6-(2,6-Difluoro-3,5-dimethoxyphenyl)-1H-pyrazolo[3,4-d]pyrimidin-3-yl]-N,N-dimethyl-2,3-dihydro-1-benzofuran-2-carboxamide]
IC50 (FGFR1): < 100 nM
IC50 (FGFR3): < 100 nM
IC50 (FGFR2): < 100 nM

COc1cc(OC)c(Cl)c(-c2cnc3c(-c4cnn(CCCO)c4)n[nH]c3c2)c1Cl [Example 71, 3-{4-[6-(2,6-Dichloro-3,5-dimethoxyphenyl)-1H-pyrazolo[4,3-b]pyridin-3-yl]-1H-pyrazol-1-yl}propan-1-ol]
IC50 (FGFR1): < 100 nM
IC50 (FGFR3): < 100 nM
IC50 (FGFR2): < 100 nM

COc1cc(OC)c(F)c(-c2cc3[nH]nc(-c4ccc(N5CCN(C)CC5)cc4)c3cn2)c1F [Example 25, 6-(2,6-Difluoro-3,5-dimethoxyphenyl)-3-[4-(4-methylpiperazin-1-yl)phenyl]-1H-pyrazolo[4,3-c]pyridine]
IC50 (FGFR1): < 100 nM
IC50 (FGFR3): < 100 nM
IC50 (FGFR2): < 100 nM

COc1cc(OC)c(Cl)c(-c2ncc3c(-c4ccc5c(c4)CCN(C)C5=O)n[nH]c3n2)c1Cl [Example 9, 6-[6-(2,6-Dichloro-3,5-dimethoxyphenyl)-1H-pyrazolo[3,4-d]pyrimidin-3-yl]-2-methyl-3,4-dihydroisoquinolin-1(2H)-one]
IC50 (FGFR1): < 100 nM
IC50 (FGFR3): < 100 nM
IC50 (FGFR2): < 100 nM

COc1cc(OC)c(F)c(-c2cc3[nH]nc(-c4cnn(C)c4)c3cn2)c1F [Example 91, 6-(2,6-Difluoro-3,5-dimethoxyphenyl)-3-(1-methyl-1H-pyrazol-4-yl)-1H-pyrazolo[4,3-c]pyridine]
IC50 (FGFR1): < 100 nM
IC50 (FGFR3): < 100 nM
IC50 (FGFR2): < 100 nM

COc1cc(OC)c(Cl)c(-c2cc3[nH]nc(-c4cnn(CC(=O)N5CCOCC5)c4)c3cn2)c1Cl [Example 40, 6-(2,6-Dichloro-3,5-dimethoxyphenyl)-3-[1-(2-morpholin-4-yl-2-oxoethyl)-1H-pyrazol-4-yl]-1H-pyrazolo[4,3-c]pyridine]
IC50 (FGFR1): < 100 nM
IC50 (FGFR3): < 100 nM
IC50 (FGFR2): < 100 nM

COc1cc(OC)c(F)c(-c2cc3[nH]nc(-c4ccc5c(c4)CCC(C(=O)N(C)C)O5)c3cn2)c1F (stereo not drawn) [Example 57, 6-[6-(2,6-Difluoro-3,5-dimethoxyphenyl)-1H-pyrazolo[4,3-c]pyridin-3-yl]-N,N-dimethylchromane-2-carboxamide]
IC50 (FGFR1): < 100 nM
IC50 (FGFR3): < 100 nM
IC50 (FGFR2): < 100 nM

COc1cc(OC)c(F)c(-c2cc3[nH]nc(-c4ccc5c(c4)CN(C4CCOCC4)C5=O)c3cn2)c1F [Example 59, 5-[6-(2,6-Difluoro-3,5-dimethoxyphenyl)-1H-pyrazolo[4,3-c]pyridin-3-yl]-2-(tetrahydro-2H-pyran-4-yl)isoindolin-1-one]
IC50 (FGFR1): < 100 nM
IC50 (FGFR3): < 100 nM
IC50 (FGFR2): < 100 nM

COc1cc(OC)c(F)c(-c2ncc3c(-c4ccc5c(c4)CCNC5=O)n[nH]c3n2)c1F [Example 12, 6-[6-(2,6-Difluoro-3,5-dimethoxyphenyl)-1H-pyrazolo[3,4-d]pyrimidin-3-yl]-3,4-dihydroisoquinolin-1(2H)-one]
IC50 (FGFR1): < 100 nM
IC50 (FGFR3): < 100 nM
IC50 (FGFR2): < 100 nM

COc1cc(OC)c(F)c(-c2ncc3c(-c4ccc5c(c4)CN(CCN(C)C)C5=O)n[nH]c3n2)c1F [Example 80, 5-[6-(2,6-Difluoro-3,5-dimethoxyphenyl)-1H-pyrazolo[3,4-d]pyrimidin-3-yl]-2-[2-(dimethylamino)ethyl]isoindolin-1-one]
IC50 (FGFR1): < 100 nM
IC50 (FGFR3): < 100 nM
IC50 (FGFR2): < 100 nM

COc1cc(OC)c(Cl)c(-c2ncc3c(-c4ccc5c(c4)CN([C@H]4CC[C@H](O)CC4)C5=O)n[nH]c3n2)c1Cl [Example 23, 5-[6-(2,6-Dichloro-3,5-dimethoxyphenyl)-1H-pyrazolo[3,4-d]pyrimidin-3-yl]-2-(trans-4-hydroxycyclohexyl)isoindolin-1-one]
IC50 (FGFR1): < 100 nM
IC50 (FGFR3): < 100 nM
IC50 (FGFR2): < 100 nM

COc1cc(OC)c(F)c(-c2cc3[nH]nc(-c4ccnc(N5CCN(C)CC5)c4)c3cn2)c1F [Example 27, 6-(2,6-Difluoro-3,5-dimethoxyphenyl)-3-[2-(4-methylpiperazin-1-yl)pyridin-4-yl]-1H-pyrazolo[4,3-c]pyridine]
IC50 (FGFR1): < 100 nM
IC50 (FGFR3): < 100 nM
IC50 (FGFR2): < 100 nM

COc1cc(OC)c(Cl)c(-c2cc3[nH]nc(-c4ccc5c(c4)N(C)C(=O)CO5)c3cn2)c1Cl [Example 31, 6-[6-(2,6-Dichloro-3,5-dimethoxyphenyl)-1H-pyrazolo[4,3-c]pyridin-3-yl]-4-methyl-2H-1,4-benzoxazin-3(4H)-one]
IC50 (FGFR1): < 100 nM
IC50 (FGFR3): < 100 nM
IC50 (FGFR2): 100 to 500 nM

COc1cc(OC)c(F)c(-c2cc3[nH]nc(-c4cnn(CCO)c4)c3cn2)c1F [Example 88, 2-{4-[6-(2,6-Difluoro-3,5-dimethoxyphenyl)-1H-pyrazolo[4,3-c]pyridin-3-yl]-1H-pyrazol-1-yl}ethanol]
IC50 (FGFR1): < 100 nM
IC50 (FGFR3): < 100 nM
IC50 (FGFR2): < 100 nM

COc1cc(OC)c(F)c(-c2ncc3c(-c4ccc5c(c4)CN([C@H]4CC[C@H](O)CC4)C5=O)n[nH]c3n2)c1F [Example 15, 5-[6-(2,6-Difluoro-3,5-dimethoxyphenyl)-1H-pyrazolo[3,4-d]pyrimidin-3-yl]-2-(trans-4-hydroxycyclohexyl)isoindolin-1-one]
IC50 (FGFR1): < 100 nM
IC50 (FGFR3): < 100 nM
IC50 (FGFR2): < 100 nM

COc1cc(OC)c(F)c(-c2cc3[nH]nc(-c4ccc5c(c4)CCNC5=O)c3cn2)c1F [Example 56, 6-[6-(2,6-Difluoro-3,5-dimethoxyphenyl)-1H-pyrazolo[4,3-c]pyridin-3-yl]-3,4-dihydroisoquinolin-1(2H)-one]
IC50 (FGFR1): < 100 nM
IC50 (FGFR3): < 100 nM
IC50 (FGFR2): < 100 nM

COc1cc(OC)c(F)c(-c2ncc3c(-c4cnn(C(C)C#N)c4)n[nH]c3n2)c1F (stereo not drawn) [Example 76, 2-{4-[6-(2,6-Difluoro-3,5-dimethoxyphenyl)-1H-pyrazolo[3,4-d]pyrimidin-3-yl]-1H-pyrazol-1-yl}propanenitrile]
IC50 (FGFR1): < 100 nM
IC50 (FGFR3): < 100 nM
IC50 (FGFR2): < 100 nM
